The target of test [1] is T1, gastric inhibitory peptide receptor (GIPR) (Homo sapiens, UniProt P48546).
T1 sequence (P48546 22-466): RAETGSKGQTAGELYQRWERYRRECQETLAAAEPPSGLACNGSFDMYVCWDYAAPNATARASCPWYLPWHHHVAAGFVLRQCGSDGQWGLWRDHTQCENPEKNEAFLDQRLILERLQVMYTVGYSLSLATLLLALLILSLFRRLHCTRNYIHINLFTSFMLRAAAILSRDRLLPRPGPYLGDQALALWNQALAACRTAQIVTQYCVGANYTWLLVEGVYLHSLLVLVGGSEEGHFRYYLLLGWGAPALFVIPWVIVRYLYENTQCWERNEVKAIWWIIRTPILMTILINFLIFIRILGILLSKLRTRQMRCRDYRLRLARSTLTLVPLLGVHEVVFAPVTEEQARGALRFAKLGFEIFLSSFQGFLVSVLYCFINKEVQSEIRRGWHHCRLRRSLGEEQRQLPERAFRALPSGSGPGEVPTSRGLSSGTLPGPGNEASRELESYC
The test is described as follows: cAMP pharmacological functional assay in presence of casein, hGIPR. It is filed as cell-based. The note with it: HEK293 cells expressing hGIPR, 0.1% Casein, geometric mean; read-out: hGIPR cAMP Rel EC50 nM (SEM, n).

The target in test [2] is human GLP-1 receptor (GLP-1R) (Homo sapiens, UniProt P43220). The test is described as follows: cAMP pharmacological functional assay in presence of casein, hGLP-1R. It counts as cell-based. The note with it: HEK293 cells expressing hGLP-1R, 0.1% Casein, geometric mean; read-out: hGLP1R cAMP Rel EC50 nM (SEM, n).
human GLP-1 receptor (GLP-1R), sequence (P43220 24-463): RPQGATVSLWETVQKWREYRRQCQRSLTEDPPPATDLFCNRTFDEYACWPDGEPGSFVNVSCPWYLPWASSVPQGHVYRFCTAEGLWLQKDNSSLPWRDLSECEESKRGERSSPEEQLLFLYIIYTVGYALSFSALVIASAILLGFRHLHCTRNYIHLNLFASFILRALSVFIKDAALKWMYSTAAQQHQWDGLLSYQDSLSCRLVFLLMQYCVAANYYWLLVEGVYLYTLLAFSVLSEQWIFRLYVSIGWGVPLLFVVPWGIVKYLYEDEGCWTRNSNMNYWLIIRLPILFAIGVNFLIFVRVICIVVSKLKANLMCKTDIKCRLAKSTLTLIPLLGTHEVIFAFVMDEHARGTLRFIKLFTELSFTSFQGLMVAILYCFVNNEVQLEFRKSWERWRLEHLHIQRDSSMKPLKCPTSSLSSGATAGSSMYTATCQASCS

This passage reports EC50 results from patent US12252524B2, “GIP/GLP1 co-agonist compounds” (Eli Lilly and Company, priority 2018, dated 2025).

SMILES strings stand for the structures. Numbered stars: 1 amine (or outer) side, 2 acyl side, 3 side chain; on linkers, the order of the positions; unused ones are H or OH. Square brackets hold non-standard residues; d marks the D form. Side chains are listed from the residue outwards. Peptide text beside a SMILES is read from it. * marks the point of attachment. C20 diacid = O=C(O)CCCCCCCCCCCCCCCCCCC(=O)*; γGlu = O=C(O)[C@H](CCC(=O)[*:2])N[*:1]; αMeF = C[C@](N)(Cc1ccccc1)C(=O)O; AEEA = NCCOCCOCC(=O)O; Aib = CC(C)(N)C(=O)O

Usually EC50 stands for the concentration at which the effect is half-maximal. Take `CC[C@H](C)[C@H](NC(=O)[C@H](CC(C)C)NC(=O)[C@H](Cc1ccc(O)cc1)NC(=O)[C@H](CCC(=O)O)NC(=O)[C@@H](NC(=O)[C@H](Cc1ccccc1)NC(=O)[C@H](C)NC(=O)C(C)(C)NC(=O)[C@H](CCC(N)=O)NC(=O)[C@H](C)NC(=O)[C@H](CCCCNC(=O)COCCOCCNC(=O)COCCOCCNC(=O)CC[C@H](NC(=O)CCCCCCCCCCCCCCCCCCC(=O)O)C(=O)O)NC(=O)[C@H](CCC(=O)O)NC(=O)[C@H](CC(=O)O)NC(=O)[C@H](CC(C)C)NC(=O)C(C)(C)NC(=O)[C@@H](NC(=O)[C@H](CO)NC(=O)[C@H](Cc1ccc(O)cc1)NC(=O)[C@H](CC(=O)O)NC(=O)[C@H](CO)NC(=O)[C@@H](NC(=O)[C@](C)(Cc1ccccc1)NC(=O)[C@@H](NC(=O)CNC(=O)[C@H](CCC(=O)O)NC(=O)C(C)(C)NC(=O)[C@@H](N)Cc1ccc(O)cc1)[C@@H](C)O)[C@@H](C)O)[C@@H](C)CC)[C@@H](C)CC)C(=O)N[C@@H](CCC(=O)O)C(=O)NCC(=O)NCC(N)=O` [Example 102] (H-Y[Aib]EGT[αMeF]TSDYSI[Aib]LDEK([AEEA-AEEA-γGlu-C20 diacid])AQ[Aib]AFIEYLIEGG-NH2): the half-maximal effective concentration (EC50) in test [1] came to 0.178 nM; in test [2] it was 0.0628 nM.

As for `CC[C@H](C)[C@H](NC(=O)[C@H](CC(C)C)NC(=O)[C@H](Cc1ccc(O)cc1)NC(=O)[C@H](CCC(=O)O)NC(=O)[C@@H](NC(=O)[C@H](Cc1ccccc1)NC(=O)[C@H](C)NC(=O)C(C)(C)NC(=O)[C@H](CCC(N)=O)NC(=O)[C@H](C)NC(=O)[C@H](CCCCNC(=O)COCCOCCNC(=O)[C@H]1CC[C@H](CNC(=O)CC[C@H](NC(=O)CCCCCCCCCCCCCCCCCCC(=O)O)C(=O)O)CC1)NC(=O)[C@H](CCCCN)NC(=O)[C@H](CC(=O)O)NC(=O)[C@H](CC(C)C)NC(=O)[C@H](CC(C)C)NC(=O)[C@@H](NC(=O)[C@H](CO)NC(=O)[C@H](Cc1ccc(O)cc1)NC(=O)[C@H](CC(=O)O)NC(=O)[C@H](CO)NC(=O)[C@@H](NC(=O)[C@H](Cc1ccccc1)NC(=O)[C@@H](NC(=O)CNC(=O)[C@H](CCC(=O)O)NC(=O)C(C)(C)NC(=O)[C@@H](N)Cc1ccc(O)cc1)[C@@H](C)O)[C@@H](C)O)[C@@H](C)CC)[C@@H](C)CC)C(=O)N[C@@H](CCC(=O)O)C(=O)NCC(=O)NCC(=O)N1CCC[C@H]1C(=O)N[C@@H](CO)C(=O)N[C@@H](CO)C(=O)NCC(=O)N[C@@H](C)C(=O)N1CCC[C@H]1C(=O)N1CCC[C@H]1C(=O)N1CCC[C@H]1C(=O)N[C@@H](CO)C(N)=O` [Example 111], the figures for the EC50 in test [1] and in test [2] were 0.141 nM and 0.308 nM, respectively.

Consider `CC[C@H](C)[C@H](NC(=O)[C@H](CC(C)C)NC(=O)[C@H](Cc1ccc(O)cc1)NC(=O)[C@H](CCC(=O)O)NC(=O)[C@@H](NC(=O)[C@H](Cc1ccccc1)NC(=O)[C@H](C)NC(=O)C(C)(C)NC(=O)[C@H](CCC(N)=O)NC(=O)[C@H](C)NC(=O)[C@H](CCCCNC(=O)COCCOCCNC(=O)COCCOCCNC(=O)[C@@H](N)CCCCNC(=O)CCCCCCCCCCCCCCCCCCC(=O)O)NC(=O)[C@H](CCCCN)NC(=O)[C@H](CC(=O)O)NC(=O)[C@H](CC(C)C)NC(=O)[C@H](CC(C)C)NC(=O)[C@@H](NC(=O)[C@H](CO)NC(=O)[C@H](Cc1ccc(O)cc1)NC(=O)[C@H](CC(=O)O)NC(=O)[C@H](CO)NC(=O)[C@@H](NC(=O)[C@H](Cc1ccccc1)NC(=O)[C@@H](NC(=O)CNC(=O)[C@H](CCC(=O)O)NC(=O)C(C)(C)NC(=O)[C@@H](N)Cc1ccc(O)cc1)[C@@H](C)O)[C@@H](C)O)[C@@H](C)CC)[C@@H](C)CC)C(=O)N[C@@H](CCC(=O)O)C(=O)NCC(=O)NCC(=O)N1CCC[C@H]1C(=O)N[C@@H](CO)C(=O)N[C@@H](CO)C(=O)NCC(=O)N[C@@H](C)C(=O)N1CCC[C@H]1C(=O)N1CCC[C@H]1C(=O)N1CCC[C@H]1C(=O)N[C@@H](CO)C(N)=O` [Example 113], for which the EC50 worked out at 0.166 nM in test [1] and 0.233 nM in test [2].

As for `CC[C@H](C)[C@H](NC(=O)[C@H](CC(C)C)NC(=O)[C@H](Cc1ccc(O)cc1)NC(=O)[C@H](CCC(=O)O)NC(=O)[C@@H](NC(=O)[C@H](Cc1ccccc1)NC(=O)[C@H](C)NC(=O)C(C)(C)NC(=O)[C@H](CCC(N)=O)NC(=O)[C@H](C)NC(=O)[C@H](CCCCNC(=O)COCCOCCNC(=O)[C@@H](N)CCCCNC(=O)[C@@H](N)CCCCNC(=O)CCCCCCCCCCCCCCCCCCC(=O)O)NC(=O)[C@H](CCCCN)NC(=O)[C@H](CC(=O)O)NC(=O)[C@H](CC(C)C)NC(=O)[C@H](CC(C)C)NC(=O)[C@@H](NC(=O)[C@H](CO)NC(=O)[C@H](Cc1ccc(O)cc1)NC(=O)[C@H](CC(=O)O)NC(=O)[C@H](CO)NC(=O)[C@@H](NC(=O)[C@H](Cc1ccccc1)NC(=O)[C@@H](NC(=O)CNC(=O)[C@H](CCC(=O)O)NC(=O)C(C)(C)NC(=O)[C@@H](N)Cc1ccc(O)cc1)[C@@H](C)O)[C@@H](C)O)[C@@H](C)CC)[C@@H](C)CC)C(=O)N[C@@H](CCC(=O)O)C(=O)NCC(=O)NCC(=O)N1CCC[C@H]1C(=O)N[C@@H](CO)C(=O)N[C@@H](CO)C(=O)NCC(=O)N[C@@H](C)C(=O)N1CCC[C@H]1C(=O)N1CCC[C@H]1C(=O)N1CCC[C@H]1C(=O)N[C@@H](CO)C(N)=O` [Example 114], the EC50 came out at 0.133 nM in test [1] and 0.267 nM in test [2].

Regarding `CC[C@H](C)[C@H](NC(=O)[C@H](CC(C)C)NC(=O)[C@H](Cc1ccc(O)cc1)NC(=O)[C@H](CCC(=O)O)NC(=O)[C@@H](NC(=O)[C@H](Cc1ccccc1)NC(=O)[C@H](C)NC(=O)C(C)(C)NC(=O)[C@H](CCC(N)=O)NC(=O)[C@H](C)NC(=O)[C@H](CCCCNC(=O)COCCOCCNC(=O)COCCOCCNC(=O)CC[C@H](NC(=O)CCCCCCCCCCCCCCCCCCC(=O)O)C(=O)O)NC(=O)[C@H](CCCCN)NC(=O)[C@H](CC(=O)O)NC(=O)[C@H](CC(C)C)NC(=O)[C@H](CC(C)C)NC(=O)[C@@H](NC(=O)[C@H](CO)NC(=O)[C@](C)(Cc1ccccc1)NC(=O)[C@H](CC(=O)O)NC(=O)[C@H](CO)NC(=O)[C@@H](NC(=O)[C@](C)(Cc1ccccc1)NC(=O)[C@@H](NC(=O)CNC(=O)[C@H](CCC(=O)O)NC(=O)C(C)(C)NC(=O)[C@@H](N)Cc1ccc(O)cc1)[C@@H](C)O)[C@@H](C)O)[C@@H](C)CC)[C@@H](C)CC)C(=O)N[C@@H](CCC(=O)O)C(=O)NCC(=O)NCC(=O)N1CCC[C@H]1C(=O)N[C@@H](CO)C(=O)N[C@@H](CO)C(=O)NCC(=O)N[C@@H](C)C(=O)N1CCC[C@H]1C(=O)N1CCC[C@H]1C(=O)N1CCC[C@H]1C(=O)N[C@@H](CO)C(N)=O` [Example 131] (H-Y[Aib]EGT[αMeF]TSD[αMeF]SILLDKK([AEEA-AEEA-γGlu-C20 diacid])AQ[Aib]AFIEYLIEGGPSSGAPPPS-NH2), the results for the EC50 in test [1] and in test [2] were 0.183 nM and 0.156 nM, respectively.
